What was measured:
Assay type in all cases: cell-based
[1] = tested on: Pseudomonas aeruginosa ATCC 9027, Candida albicans ATCC 10231, Aspergillus niger ATCC 16404; assay: Preservation loading test in styrene butadiene emulsions; settings: sole active component, neutral conditions, typical polymer emulsion; bacteria, yeasts and moulds
Protocol: Styrene Butadiene Emulsions were inoculated with 1×10^6 of the test culture, stored for 7 days at 25° C. and then a semi-quantitative determination of colony forming units was carried out. This loading test was carried out with a representative bacteria (Pseudomonas aeruginosa ATCC 9027), a representative yeast (Candida albicans ATCC 10231) and a representative mould (Aspergillus niger ATCC 16404) over consecutive weeks until the product has been subjected to (at least) three separate loadings of each culture type. The concentration of preserving agent at which no recovery of the test organisms was observed is the end point of the test and adequacy of preservation is assumed.

[2] = tested on: Candida albicans (CA) ATCC 10231; assay: MIC culture tube dilution test; settings: pH 7.2±0.2, 72 hour incubation at 36° C.
Protocol: (§1) Microbiocides and microbiocidal properties were determined experimentally. Very well suited test methods are described in detail in the German Society for Hygiene and Microbiology (GGHM) for the examination of disinfectants. In order to determine the MIC, culture tube dilution tests were carried out according to the “regulations for the examination and evaluation of chemical disinfection procedures (Edition 1.1.81, procedures slightly modified)” using a […]-soya bean meal peptide medium. The dilution was carried out with water of standardised hardness without further agents such as surfactants. The adjustment of the pH values to 7.2±0.2 was carried out with 0.1 mol/NaOH or 0.1 mol/HCl. The gradation of test concentrations was made according to the concentration steps proposed by the GGHM. The evaluation was carried out after a 72 hour incubation at 36° C. [table] One part polyvinylamine, consisting of 95 wt % vinyl units and 5 wt % vinylformamide units with a K-value of 90 were mixed with 4.2 parts cyclohexyldiazeniumdioxy potassium. […] The effectiveness was determined according to the abovementioned methods. MIC stated here gives the minimal effective concentration, in which a.i. (active ingredient) means the active component.

[3] = tested on: Proteus mirabilis (PRM) ATCC 14153; assay: MIC culture tube dilution test; settings: pH 7.2±0.2, 72 hour incubation at 36° C.
Protocol: as §1

[4] = tested on: Pseudomonas aeruginosa (PSA) ATCC 15442; assay: MIC culture tube dilution test; settings: pH 7.2±0.2, 72 hour incubation at 36° C.
Protocol: as §1

[5] = tested on: Aspergillus niger (ASN) ATCC 16404; assay: MIC culture tube dilution test; settings: pH 7.2±0.2, 72 hour incubation at 36° C.
Protocol: as §1

[6] = tested on: Staphylococcus aureus (STA) ATCC 6538; assay: MIC culture tube dilution test; settings: pH 7.2±0.2, 72 hour incubation at 36° C.
Protocol: as §1

[7] = tested on: Escherichia coli (EC) ATCC 11229; assay: MIC culture tube dilution test; settings: pH 7.2±0.2, 72 hour incubation at 36° C.
Protocol: as §1

O=NN(O)C1CCCCC1.[K] [KHDO, potassium salt of N′-hydroxy-N-cyclohexyl-diazenium oxide]
Killing of spoilage microorganisms (in words) [1]: able not only to inhibit but actively kill a representative range of spoilage microorganisms | MIC Cyclohexyldiazeniumdioxy potassium [ppm a.i.] B [2]: 350 ppm a.i. | MIC Cyclohexyldiazeniumdioxy potassium [ppm a.i.] B [3]: 750 ppm a.i. | MIC Cyclohexyldiazeniumdioxy potassium [ppm a.i.] B [4]: 3000 ppm a.i. | MIC Cyclohexyldiazeniumdioxy potassium [ppm a.i.] B [5]: 175 ppm a.i. | MIC Cyclohexyldiazeniumdioxy potassium [ppm a.i.] B [6]: 750 ppm a.i. | MIC Cyclohexyldiazeniumdioxy potassium [ppm a.i.] B [7]: 350 ppm a.i.
